Assay results taken from patent US20090068290A1, “BIFEPRUNOX DOSES FOR TREATING SCHIZOPHRENIA” (priority 2006, published 2009).

What was measured:
[1] = tested on: adult subjects with schizophrenia; assay: CGI Improvement score, Clinical Study One; assay type: in vivo, human; design: Actual Value of CGI Improvement Score, Median / CGI Improvement Score, Trt Effect: scale not given here
Description: (§1) There were five treatment groups in this study. […] Study medication was administered once daily. After Baseline measurements were performed, the titration phase was begun. Bifeprunox treated subjects were titrated up to 5 mg, 10 mg or 20 mg according to a standardized titration schedule (Day 1: 0.125 mg, Day 2: 0.25 mg, Day 3: 0.5 mg, Day 4: 1.0 mg, Day 5: 2.0 mg, Day 6: 5.0 mg, Day 7: 10.0 mg, Day 8: 20 mg). When the assigned dose was reached, subjects were maintained at that dose for the remainder of the six-week treatment period.
(§2) The change in the Positive and Negative Symptom Scale (PANSS) total score, from baseline to endpoint, was the primary outcome measure. Secondary efficacy measures included: PANSS positive, PANSS negative, PANSS general psychopathology (GPP) score, PANSS-derived Brief Psychiatric Rating Scale (BPRS) score, Clinical Global Impressions-Severity of Illness (CGI-S), CGI-Improvement (CGI-I) scores, and responder rates. Safety and tolerability evaluations included extrapyramidal symptoms (EPS), weight gain, lipid profile, and serum prolactin.

[2] = tested on: adult subjects with schizophrenia; assay: BPRS total score, Clinical Study One; assay type: in vivo, human; settings: ITT population
Description: as §1, §2

[3] = Bifeprunox 10 mg, Endpoint LOCF
[4] = Bifeprunox 20 mg, Endpoint LOCF

Question: Which results are given for O=c1[nH]c2cccc(N3CCN(Cc4cccc(-c5ccccc5)c4)CC3)c2o1 [Bifeprunox, 7-[4-([1,1′-biphenyl]-3-ylmethyl)-1-piperazinyl]-2(3H)-benzoxazolone]?
Answer: Actual Value of CGI Improvement Score, Median ([1]; 5 mg, Week 2, LOCF): 3.0; Actual Value of CGI Improvement Score, Mean (S.D.) ([1]; 5 mg, Week 3, LOCF): 3.2 (1.27); Actual Value of CGI Improvement Score, Median ([1]; 5 mg, Week 3, LOCF): 3.0; Actual Value of CGI Improvement Score, Mean (S.D.) ([1]; 5 mg, Week 4, LOCF): 3.37 (1.35); Actual Value of CGI Improvement Score, Median ([1]; 5 mg, Week 4, LOCF): 3.0; CGI Improvement Score, Trt Effect ([1]; 10 mg versus placebo, Endpoint LOCF): 0.28; Actual Value of CGI Improvement Score, Mean (S.D.) ([1]; 10 mg, Endpoint LOCF): 3.90 (1.39); Actual Value of CGI Improvement Score, Median ([1]; 10 mg, Endpoint LOCF): 4.0; Actual Value of CGI Improvement Score, Mean (S.D.) ([1]; 10 mg, Week 1, LOCF): 3.88 (1.00); Actual Value of CGI Improvement Score, Median ([1]; 10 mg, Week 1, LOCF): 4.0; Actual Value of CGI Improvement Score, Mean (S.D.) ([1]; 10 mg, Week 2, LOCF): 3.71 (1.23); Actual Value of CGI Improvement Score, Median ([1]; 10 mg, Week 2, LOCF): 4.0; Actual Value of CGI Improvement Score, Mean (S.D.) ([1]; 10 mg, Week 3, LOCF): 3.79 (1.32); Actual Value of CGI Improvement Score, Median ([1]; 10 mg, Week 3, LOCF): 4.0; Actual Value of CGI Improvement Score, Mean (S.D.) ([1]; 10 mg, Week 4, LOCF): 3.86 (1.35); Actual Value of CGI Improvement Score, Median ([1]; 10 mg, Week 4, LOCF): 4.0; CGI Improvement Score, Trt Effect ([1]; 20 mg versus placebo, Endpoint LOCF): −0.21; Actual Value of CGI Improvement Score, Mean (S.D.) ([1]; 20 mg, Endpoint LOCF): 342 (1.30); Actual Value of CGI Improvement Score, Median ([1]; 20 mg, Endpoint LOCF): 3.0; Actual Value of CGI Improvement Score, Mean (S.D.) ([1]; 20 mg, Week 1, LOCF): 3.54 (0.99); Actual Value of CGI Improvement Score, Median ([1]; 20 mg, Week 1, LOCF): 4.0; Actual Value of CGI Improvement Score, Mean (S.D.) ([1]; 20 mg, Week 2, LOCF): 3.30 (114); Actual Value of CGI Improvement Score, Median ([1]; 20 mg, Week 2, LOCF): 3.0; Actual Value of CGI Improvement Score, Mean (S.D.) ([1]; 20 mg, Week 3, LOCF): 3.31 (1.19); Actual Value of CGI Improvement Score, Median ([1]; 20 mg, Week 3, LOCF): 3.0; Actual Value of CGI Improvement Score, Mean (S.D.) ([1]; 20 mg, Week 4, LOCF): 3.35 (1.29); Actual Value of CGI Improvement Score, Median ([1]; 20 mg, Week 4, LOCF): 3.0; Change from Baseline in BPRS Total Score, Mean (S.D.) ([2]; Bifeprunox 5 mg, Endpoint LOCF): −6.2 (10.5); Change from Baseline in BPRS Total Score, Median ([2]; Bifeprunox 5 mg, Endpoint LOCF): −5; Change from Baseline in BPRS Total Score, Trt Effect (bifeprunox—placebo) ([2]; Bifeprunox 5 mg, Endpoint LOCF): −2.4; Change from Baseline in BPRS Total Score, Mean (S.D.) ([2]; Bifeprunox 5 mg, Week 1, LOCF): −2.4 (7.5); Change from Baseline in BPRS Total Score, Median ([2]; Bifeprunox 5 mg, Week 1, LOCF): −3; Change from Baseline in BPRS Total Score, Mean (S.D.) ([2]; Bifeprunox 5 mg, Week 2, LOCF): −4.2 (8.6); Change from Baseline in BPRS Total Score, Median ([2]; Bifeprunox 5 mg, Week 2, LOCF): −4; Change from Baseline in BPRS Total Score, Mean (S.D.) ([2]; Bifeprunox 5 mg, Week 3, LOCF): −5.2 (9.7); Change from Baseline in BPRS Total Score, Median ([2]; Bifeprunox 5 mg, Week 3, LOCF): −5; Change from Baseline in BPRS Total Score, Mean (S.D.) ([2]; Bifeprunox 5 mg, Week 4, LOCF): −5.6 (10.2); Change from Baseline in BPRS Total Score, Median ([2]; Bifeprunox 5 mg, Week 4, LOCF): −5; Change from Baseline in BPRS Total Score, Mean (S.D.) [2, 3]: −3.4 (11.5); Change from Baseline in BPRS Total Score, Median [2, 3]: −2; Change from Baseline in BPRS Total Score, Trt Effect (bifeprunox—placebo) [2, 3]: −0.6; Change from Baseline in BPRS Total Score, Mean (S.D.) ([2]; Bifeprunox 10 mg, Week 1, LOCF): −2.0 (7.2); Change from Baseline in BPRS Total Score, Median ([2]; Bifeprunox 10 mg, Week 1, LOCF): −1; Change from Baseline in BPRS Total Score, Mean (S.D.) ([2]; Bifeprunox 10 mg, Week 2, LOCF): −3.1 (9.3); Change from Baseline in BPRS Total Score, Median ([2]; Bifeprunox 10 mg, Week 2, LOCF): −3; Change from Baseline in BPRS Total Score, Mean (S.D.) ([2]; Bifeprunox 10 mg, Week 3, LOCF): −3.3 (10.9); Change from Baseline in BPRS Total Score, Median ([2]; Bifeprunox 10 mg, Week 3, LOCF): −2; Change from Baseline in BPRS Total Score, Mean (S.D.) ([2]; Bifeprunox 10 mg, Week 4, LOCF): −3.1 (10.7); Change from Baseline in BPRS Total Score, Median ([2]; Bifeprunox 10 mg, Week 4, LOCF): −3; Change from Baseline in BPRS Total Score, Mean (S.D.) [2, 4]: −7.6 (10.1); Change from Baseline in BPRS Total Score, Median [2, 4]: −8; Change from Baseline in BPRS Total Score, Trt Effect (bifeprunox—placebo) [2, 4]: −3.5; Change from Baseline in BPRS Total Score, Mean (S.D.) ([2]; Bifeprunox 20 mg, Week 1, LOCF): −4.3 (7.3); Change from Baseline in BPRS Total Score, Median ([2]; Bifeprunox 20 mg, Week 1, LOCF): −3; Change from Baseline in BPRS Total Score, Mean (S.D.) ([2]; Bifeprunox 20 mg, Week 2, LOCF): −6.1 (8.8); Change from Baseline in BPRS Total Score, Median ([2]; Bifeprunox 20 mg, Week 2, LOCF): −7; Change from Baseline in BPRS Total Score, Mean (S.D.) ([2]; Bifeprunox 20 mg, Week 3, LOCF): −7.5 (9.1); Change from Baseline in BPRS Total Score, Median ([2]; Bifeprunox 20 mg, Week 3, LOCF): −8; Change from Baseline in BPRS Total Score, Mean (S.D.) ([2]; Bifeprunox 20 mg, Week 4, LOCF): −7.7 (9.7); Change from Baseline in BPRS Total Score, Median ([2]; Bifeprunox 20 mg, Week 4, LOCF): −8
